# Measurements: US20240247080A1, “GLP1/GIP/NPY2 RECEPTOR TRIPLE AGONISTS” (Boehringer Ingelheim International GmbH, priority 2022, published 2024)
# Where two headings read alike, the source gives them in different places. Non-standard residues stand in square brackets, D forms with d. Residues, ends and D or L forms follow the SMILES beside them. Groups on a side chain read outwards from the residue. ξ: configuration not given here. *: point of attachment. C18 diacid = O=C(O)CCCCCCCCCCCCCCCCC(=O)*; NMeY = CN[C@@H](Cc1ccc(O)cc1)C(=O)O; αMeF = C[C@](N)(Cc1ccccc1)C(=O)O; ξIva = CCC(C)(N)C(=O)O; Aib = CC(C)(N)C(=O)O
# Legend:
# [1] = Solubility in 0.1 M phosphate buffer at pH 7; assay type: physicochemical; details: phosphate buffer
# Description: Peptides (as TFA-salts) were weighed out in a filter unit (Mini-UniPrep Syringieless Filter 0.45 prn. Whatman PVDF), and 0.1 M phosphate buffer at pH 7 was added to achieve 10 mg/mL final peptide concentration. The peptides were dissolved by shaking the filter units horizontally at 600 rpm for 2 hours at room temperature. Samples were then filtered to remove any insoluble particles. Controls were prepared by weighing out the corresponding peptide solid material and dissolving it in an appropriate vehicle (e.g. ACN:H2O) to a final concentration of 1 mg/mL. Both, the control and sample were analyzed by reversed phase chromatography. The area under the peak of the sample was compared to the control and the solubility was calculated based on that ratio. The pH was measured and recorded for each sample.
# [2] = Mouse PK after intravenous application; assay type: in vivo; details: plasma, mean residence time, intravenous 30-60 nmol/kg, male NMRI mice
# Outline: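 Male NMRI mice (30–40 g) received 30-60 nmol/kg peptide by tail-vein injection, dissolved in 50 mM phosphate buffer (pH 7.4)/3.5% mannitol. Saphenous blood was sampled up to 56 hours post-dose and EDTA plasma analysed by LC-MS. PK parameters came from non-compartmental analysis.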
# [3] = biological target: T1, hNPY2R (Homo sapiens, UniProt P49146); assay: hNPY2R CreLuc reporter gene assay in 0.5% and 100% plasma; assay type: cell-based; details: CreLuc reporter gene assay
# T1 construct: expressed in transfected cells; host or cells: HEK-293 cells carrying a CRE-luciferase reporter gene
# T1 sequence (P49146 1-381): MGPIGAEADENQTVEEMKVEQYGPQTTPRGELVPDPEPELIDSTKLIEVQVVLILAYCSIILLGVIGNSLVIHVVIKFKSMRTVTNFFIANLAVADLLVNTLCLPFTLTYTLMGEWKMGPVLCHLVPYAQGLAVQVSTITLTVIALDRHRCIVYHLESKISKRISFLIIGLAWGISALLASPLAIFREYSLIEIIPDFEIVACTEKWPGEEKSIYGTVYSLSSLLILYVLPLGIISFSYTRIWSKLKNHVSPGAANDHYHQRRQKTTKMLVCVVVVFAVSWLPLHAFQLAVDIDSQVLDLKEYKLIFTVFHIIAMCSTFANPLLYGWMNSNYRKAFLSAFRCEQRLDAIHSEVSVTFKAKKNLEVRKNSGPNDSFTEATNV
# Outline: (§1)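 Agonist EC50s came from 8-concentration curves over four decades, fitted by non-linear variable-slope regression of CRE-driven luciferase luminescence. Cells were exposed 4 h at 37 °C, in buffer with 0.5% human plasma or in 100% plasma; GIPR was expressed in CHO cells, GLP-1R and NPY2R in HEK cells.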
# [4] = biological target: T2, hGIPR (Homo sapiens, UniProt P48546); assay: hGIPR CreLuc reporter gene assay in 0.5% and 100% plasma; assay type: cell-based; details: CreLuc reporter gene assay
# T2 construct: expressed in transfected cells; host or cells: CHO cells carrying a CRE-luciferase reporter gene
# T2 sequence (P48546 22-466): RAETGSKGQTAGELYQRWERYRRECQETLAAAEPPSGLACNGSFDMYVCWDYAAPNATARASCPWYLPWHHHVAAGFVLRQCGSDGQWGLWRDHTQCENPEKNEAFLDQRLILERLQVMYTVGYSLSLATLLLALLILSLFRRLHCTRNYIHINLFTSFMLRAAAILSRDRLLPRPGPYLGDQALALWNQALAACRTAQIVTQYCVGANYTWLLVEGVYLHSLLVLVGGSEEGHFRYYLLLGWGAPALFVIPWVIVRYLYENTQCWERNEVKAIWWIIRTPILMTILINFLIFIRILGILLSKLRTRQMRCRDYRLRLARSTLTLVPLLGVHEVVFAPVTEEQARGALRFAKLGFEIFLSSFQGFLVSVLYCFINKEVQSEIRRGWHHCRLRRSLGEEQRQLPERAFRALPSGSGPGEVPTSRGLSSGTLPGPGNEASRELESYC
# Outline: as §1
# [5] = Effect on acute food intake in normal NMRI mice; assay type: in vivo; details: 30 nmol/kg subcutaneously once, normalized to vehicle group, male NMRI mice
# Description: Example 4: Effect on Acute Food Intake in Normal NMRI Mice
# Male NMRI mice were obtained from Janvier (Janvier Labs, France) or from Charles River (Charles River Research Models & Services Germany GmbH) at the age of 3 weeks. The animals get a microchip (Datamars, Slim Microchip T-SL) for individual identification after delivery. They were housed with 4 mice per cage under a 12/12 dark-light cycle, light off at 3 p.m. Room temperature was controlled to 21° C. +/−1° C. and humidity 60%+/−20%. Mice had ad libitum access to regular rodent chow (KLIBA Nafag 3040 or Altromin 1324, Brogaarden, Denmark) and tap water.
# Latest transfer into the HM2-System of MBRose, Denmark (real-time monitoring system of food- and water intake) of the animals 5 days before study start, to allow acclimatization to experimental conditions. As the animals were uniquely identified with the microchips, each individual animal was identified by its own microchip upon entry and exit from the food channel via antennae. Randomization of the mice for each study group (n=8; age earliest 6 weeks old) was based on food intake (middle of last three days 24 h-Intervall) and bodyweight directly before start of the study. A vehicle treated (50 mM phosphate buffer pH7.4 with 3.5% Mannitol) group was included in each experiment. To have the same nutrition standard for each animal the food access was locked eight hours before dark phase. One hour before night, the animals were once treated subcutaneously with the test peptide. Food intake was reported hourly for a period of 24 h.
# [6] = biological target: T3, hGLP1R (Homo sapiens, UniProt P43220); assay: hGLP1R CreLuc reporter gene assay in 0.5% and 100% plasma; assay type: cell-based; details: CreLuc reporter gene assay
# T3 construct: expressed in transfected cells; host or cells: HEK-293 cells carrying a CRE-luciferase reporter gene
# T3 sequence (P43220 24-463): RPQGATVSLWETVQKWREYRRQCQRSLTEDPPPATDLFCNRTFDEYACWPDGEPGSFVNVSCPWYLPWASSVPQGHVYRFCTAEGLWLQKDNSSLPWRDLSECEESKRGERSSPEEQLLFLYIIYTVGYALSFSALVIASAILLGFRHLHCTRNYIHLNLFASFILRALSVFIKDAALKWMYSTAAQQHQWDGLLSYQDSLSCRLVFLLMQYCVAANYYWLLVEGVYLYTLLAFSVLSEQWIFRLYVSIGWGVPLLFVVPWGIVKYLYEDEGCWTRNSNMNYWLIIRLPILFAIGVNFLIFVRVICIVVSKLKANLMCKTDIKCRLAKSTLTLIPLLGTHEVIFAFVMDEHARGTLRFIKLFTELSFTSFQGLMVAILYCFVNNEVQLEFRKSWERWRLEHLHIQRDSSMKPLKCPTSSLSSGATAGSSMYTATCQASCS
# Outline: as §1
# [7] = 0.5% human plasma, read-out: hNPY2R 0.5% hP
# [8] = 100% human plasma, read-out: hNPY2R 100% hP
# [9] = 0.5% human plasma, read-out: hGIPR 0.5% hP
# [10] = 100% human plasma, read-out: hGIPR 100% hP
# [11] = 0.5% human plasma, read-out: hGLP1R 0.5% hP
Compound,solubility [1] [µg/mL],MRT [2] [h],"EC50 [3, 7] [nM]","EC50 [3, 8] [nM]","EC50 [4, 9] [nM]","EC50 [4, 10] [nM]",Acute Food Intake 24 h 30 nmol/kg [% CTL] [5] [% CTL],"EC50 [6, 11] [nM]","EC50 ([6]; 100% human plasma, read-out: hGLP1R 100% hP) [nM]"
"CC[C@H](C)[C@H](NC(=O)[C@H](CO)NC(=O)[C@H](CCCCNC(=O)CNC(=O)CNC(=O)CNC(=O)CNC(=O)CCCCCCCCCCCCCCCCC(=O)O)NC(=O)[C@H](CC(=O)O)NC(=O)[C@H](CO)NC(=O)[C@@H](NC(=O)[C@](C)(Cc1ccccc1)NC(=O)[C@@H](NC(=O)CNC(=O)[C@H](CCC(=O)O)NC(=O)C(C)(C)NC(=O)[C@H](Cc1ccc(O)cc1)NC)[C@@H](C)O)[C@@H](C)O)C(=O)NC(C)(C)C(=O)N[C@@H](CC(C)C)C(=O)N[C@@H](CCC(=O)O)C(=O)N[C@@H](CCCCN)C(=O)N[C@@H](CCC(N)=O)C(=O)N[C@@H](CCCNC(=N)N)C(=O)N[C@@H](CCC(N)=O)C(=O)NC(C)(CC)C(=O)N[C@@H](CCC(=O)O)C(=O)N[C@@H](Cc1ccccc1)C(=O)N[C@H](C(=O)N[C@@H](CCCNC(=N)N)C(=O)N[C@@H](Cc1c[nH]cn1)C(=O)N[C@@H](CC(C)C)C(=O)N[C@@H](CC(C)C)C(=O)N[C@@H](CC(N)=O)C(=O)N[C@@H](CCCCN)C(=O)NC(C)(C)C(=O)N[C@H](C(=O)N[C@@H](CCCNC(=N)N)C(=O)N[C@@H](CCC(N)=O)C(=O)N[C@@H](CCCNC(=N)N)C(=O)N[C@@H](Cc1ccc(O)cc1)C(N)=O)[C@@H](C)O)C(C)C (stereo partly drawn) [Ref. 2, NMeY-Aib-E-G-T-aMeF-T-S-D-K(1,3)-S-I-Aib-L-E-K-Q-R-Q-Iva-E-F-V-R-H-L-L-N-K-Aib-T-R-Q-R-Y-NH2.C18DA-G-G-G-G(1,2), reference compound] (H-[NMeY][Aib]EGT[αMeF]TSDK([Gly-Gly-Gly-Gly-C18 diacid])SI[Aib]LEKQRQ[ξIva]EFVRHLLNK[Aib]TRQRY-NH2)",< 1000,4.3,,,,,,,
"CC[C@H](C)[C@H](NC(=O)[C@H](CC(C)C)NC(=O)[C@H](Cc1c[nH]c2ccccc12)NC(=O)[C@H](CCC(N)=O)NC(=O)[C@@H](NC(=O)[C@H](Cc1ccccc1)NC(=O)[C@H](C)NC(=O)C(C)(C)NC(=O)[C@H](CCC(N)=O)NC(=O)[C@H](C)NC(=O)[C@H](CCC(N)=O)NC(=O)[C@H](CCCCN)NC(=O)[C@H](CCC(=O)O)NC(=O)[C@H](CC(C)C)NC(=O)C(C)(C)NC(=O)[C@@H](NC(=O)[C@H](CO)NC(=O)[C@H](Cc1ccc(O)cc1)NC(=O)[C@H](CC(=O)O)NC(=O)[C@H](CO)NC(=O)[C@@H](NC(=O)[C@H](Cc1ccccc1)NC(=O)[C@@H](NC(=O)CNC(=O)[C@H](CCC(=O)O)NC(=O)C(C)(C)NC(=O)[C@@H](N)Cc1ccc(O)cc1)[C@@H](C)O)[C@@H](C)O)[C@@H](C)CC)C(C)C)C(=O)N[C@@H](CCCCNC(=O)[C@@H](N)CCCCNC(=O)CC[C@H](NC(=O)CC[C@H](NC(=O)CC[C@H](NC(=O)CC[C@H](NC(=O)CC[C@H](NC(=O)CC[C@H](NC(=O)CCCCCCCCCCCCCCCCCCC(=O)O)C(=O)O)C(=O)O)C(=O)O)C(=O)O)C(=O)O)C(=O)O)C(=O)NCC(=O)NCC(=O)N1CCC[C@H]1C(=O)N[C@@H](CO)C(=O)N[C@@H](CCC(=O)O)C(=O)NCC(=O)N[C@@H](C)C(=O)N[C@@H](CO)C(=O)N[C@@H](CC(C)C)C(=O)N[C@@H](CCCNC(=N)N)C(=O)N[C@@H](Cc1c[nH]cn1)C(=O)N[C@@H](Cc1ccc(O)cc1)C(=O)N[C@@H](Cc1ccc(O)cc1)C(=O)N[C@@H](CC(N)=O)C(=O)N[C@@H](Cc1c[nH]c2ccccc12)C(=O)N[C@@H](CC(C)C)C(=O)N[C@H](C(=O)N[C@@H](CCCNC(=N)N)C(=O)N[C@@H](CCC(N)=O)C(=O)N[C@@H](CCCNC(=N)N)C(=O)N[C@@H](Cc1ccc(O)cc1)C(N)=O)[C@@H](C)O [Compound 220, Y-Aib-E-G-T-F-T-S-D-Y-S-I-Aib-L-E-K-Q-A-Q-Aib-A-F-V-Q-W-L-I-K(1,3)-GGPSEGASLRHYYNWLTRQRY-NH2.C20DA-gGlu-gGlu-gGlu-gGlu-gGlu-gGlu-eLys(1,2)]",,12.1,10.2,42.6,0.29,1.83,45,0.17,
"CC[C@H](C)[C@H](NC(=O)[C@H](CC(C)C)NC(=O)[C@H](Cc1c[nH]c2ccccc12)NC(=O)[C@H](CCC(=O)O)NC(=O)[C@@H](NC(=O)[C@H](Cc1ccccc1)NC(=O)[C@H](C)NC(=O)C(C)(C)NC(=O)[C@H](CCC(N)=O)NC(=O)[C@H](C)NC(=O)[C@H](CCC(N)=O)NC(=O)[C@H](CCCCN)NC(=O)[C@H](CCC(=O)O)NC(=O)[C@H](CC(C)C)NC(=O)C(C)(C)NC(=O)[C@@H](NC(=O)[C@H](CO)NC(=O)[C@H](Cc1ccc(O)cc1)NC(=O)[C@H](CC(=O)O)NC(=O)[C@H](CO)NC(=O)[C@@H](NC(=O)[C@H](Cc1ccccc1)NC(=O)[C@@H](NC(=O)CNC(=O)[C@H](CCC(=O)O)NC(=O)C(C)(C)NC(=O)[C@@H](N)Cc1ccc(O)cc1)[C@@H](C)O)[C@@H](C)O)[C@@H](C)CC)C(C)C)C(=O)N[C@@H](CCCCNC(=O)[C@@H](N)CCCCNC(=O)CC[C@H](NC(=O)CC[C@H](NC(=O)CC[C@H](NC(=O)CC[C@H](NC(=O)CC[C@H](NC(=O)CC[C@H](NC(=O)CCCCCCCCCCCCCCCCC(=O)O)C(=O)O)C(=O)O)C(=O)O)C(=O)O)C(=O)O)C(=O)O)C(=O)NCC(=O)NCC(=O)N1CCC[C@H]1C(=O)N[C@@H](CO)C(=O)N[C@@H](CO)C(=O)NCC(=O)N[C@@H](C)C(=O)N[C@@H](CO)C(=O)N[C@@H](CC(C)C)C(=O)N[C@@H](CCCNC(=N)N)C(=O)N[C@@H](Cc1c[nH]cn1)C(=O)N[C@@H](Cc1ccc(O)cc1)C(=O)N[C@@H](Cc1ccc(O)cc1)C(=O)N[C@@H](CC(N)=O)C(=O)N[C@@H](Cc1c[nH]c2ccccc12)C(=O)N[C@@H](CC(C)C)C(=O)N[C@H](C(=O)N[C@@H](CCCNC(=N)N)C(=O)N[C@@H](CCC(N)=O)C(=O)N[C@@H](CCCNC(=N)N)C(=O)N[C@@H](Cc1ccc(O)cc1)C(N)=O)[C@@H](C)O [Compound 259, Y-Aib-E-G-T-F-T-S-D-Y-S-I-Aib-L-E-K-Q-A-Q-Aib-A-F-V-E-W-L-I-K(1,3)-GGPSSGASLRHYYNWLTRQRY-NH2.C18DA-gGlu-gGlu-gGlu-gGlu-gGlu-gGlu-eLys(1,2)]",,8.4,10.7,29.3,0.22,0.91,36,0.09,2.55
